Laboratory results taken from patent US20250066290A1, “DHODH INHIBITORS CONTAINING A CARBOXYLIC ACID BIOISOSTERE” (IMMUNIC AG, priority 2021, published 2025).
≈ marks a conversion by molar mass, not a printed value. Like-named read-outs stand apart in the source and are kept apart here.

Experiments:
[1] = biological target: N-terminally truncated recombinant hDHODH enzyme (Homo sapiens, UniProt Q02127); test: biochemical; format: biochemical
Description: Briefly, the hDHODH concentration was adjusted in a way that an average slope of approximately 0.2 AU/min served as the positive control (e.g. without inhibitor). The standard assay mixture contained 60 μM 2,6-dichloroindophenol, 50 μM decylubiquinone and 100 μM dihydroorotate. The hDHODH enzyme with or without at least six different concentrations of the compounds was added and measurements were performed in 50 mM TrisHCl, 150 mM KCl and 0.1% Triton X-100 at pH 8.0 and at 30° C. The reaction was started by adding dihydroorotate and measuring the absorption at 600 nm for 2 min. For the determination of the IC50 values, each data point was recorded in triplicate. […].

SARS-CoV-2 = SARS-CoV-2 viral replication (YFP) assay; format: cell-based; details: Severe acute respiratory syndrome coronavirus 2, read-out: EC50 range
[2] = Mouse pharmacokinetics, female, deuteration matched pair analysis; format: in vivo, mice (C57BL/6J); details: for AUC(0-t) / Cmax / half-life: C57BL/6J, mouse, in vivo; for AUC(0-t) / Cmax / F: female mice; for AUC(0-t): 0 to 8 h; for Cmax: 5 mg/kg oral, 1 mg/kg intravenous cassette; for F: bioavailability; for half-life: female
Description: In another matched pair analysis the benefit of deuteration of the N-methoxyacetamide moiety was tested: the pharmacokinetic properties of the compounds were evaluated in 3 female mice (C57BL/6J, 8 week old) after oral or intravenous cassette dosing to assess the oral bioavailability. Dose was 5 mg/kg (oral) and 1 mg/kg (intravenous), application volume was 5 mL/kg (oral) and 2 mL/kg (intravenous), vehicle was 5% solutol, 95% NaCl solution (at 0.9% saline concentration) for oral and 5% solutol, 5% ethanol, 90% NaCl solution (at 0.9% saline concentration) for intravenous application. At each designated time point (0.25, 0.5, 1, 2, 4 and 8 h after dosing for oral; 0.083, 0.25, 0.5, 1, 4 and 8 h after dosing for intravenous), 20 μL whole blood were collected from the tail vein into Li-heparin tubes, frozen on dry ice within 1-2 minutes of sampling and stored at −20° C. until processed for LC-MS analysis.

[3] = biological target: human URAT1 uptake transporter (Homo sapiens (Human), UniProt Q96S37); test: Human URAT1 uptake transporter assay (MDCKII-URAT1-LV, SOLVO); format: cell-based; details: 10 μM compound, 20 μM uric acid probe substrate
Description: In the human URAT1 uptake transporter assay (host cell line: MDCKII), the accumulation of the probe substrate in the presence of a DHODH inhibitor (at a concentration of 10 μM) into cells was measured. The assay was executed at SOLVO with catalogue number MDCKII-URAT1-LV. 20 μM uric acid served as probe substrate. Reference inhibitor was benzbromarone at a concentration of 300 μM, which served as internal control.

[4] = Partition coefficient log D (n-octanol/PBS at pH 7.4); format: physicochemical; details: n-octanol/PBS at pH 7.4; read-out: logD
Description: The total amount of compound was determined as the peak area of the principal peak in a calibration standard (100 μM) containing organic solvent (MeOH/water, 60/40 v/v). The amount of compound in buffer was determined as the combined, volume-corrected and weighted areas of the corresponding peaks in the aqueous phases of three organic-aqueous samples of different composition. An automated weighting system was used to ensure the preferred use of raw data from those samples with well quantifiable peak signals. The amount of compound in organic was calculated by subtraction.
Subsequently, the partition coefficient (log D, n-octanol/PBS at pH 7.4) was calculated as the Log10 of the amount of compound in the organic phase divided by the amount of compound in the aqueous phase (Eurofins Discovery Services Item #417).

[5] = Kinetic aqueous solubility in PBS at pH 7.4; details: pH 7.4, aqueous buffer, kinetic from dmso stock
[6] = Metabolic stability in rat liver microsomes; details: SD
Excerpt: (§1) The metabolism was monitored by HPLC-MS/MS. Verapamil served as positive control.

[7] = Metabolic stability in human liver microsomes
Excerpt: as §1

[8] = Mouse pharmacokinetics, male and female, cassette dosing; format: in vivo, mice (C57BL/6J); details: for AUC / Cmax / half-life: C57BL/6J, mouse, in vivo; for AUC: 0 to 24 h; for Cmax: 5 mg/kg oral, 1 mg/kg intravenous cassette; for F: bioavailability
Description: The pharmacokinetics of the compounds of the present invention was evaluated in 3 male and 3 female mice (C57BL/6J, 8 week old) after oral or intravenous cassette dosing to assess the oral bioavailability. Dose was 5 mg/kg (oral) and 1 mg/kg (intravenous), application volume was 5 mL/kg (oral) and 0.5 mL/kg (intravenous), vehicle was 5% solutol, 95% NaCl solution (at 0.9% saline concentration) for oral and 5% solutol, 5% ethanol, 90% NaCl solution (at 0.9% saline concentration) for intravenous. At each designated time point (0.5, 1, 2, 4, 8 and 24 h after dosing), 20 μL whole blood were collected from the tail vein into Li-heparin tubes, frozen on dry ice within 1-2 minutes of sampling and stored at −20° C. until processed for LC-MS analysis.

[9] = Rat pharmacokinetics, oral cassette dosing; set-up: species or system Sprague Dawley rats; details: Sprague Dawley, in vivo; for AUC(0-t) / Cmax / AUC(0-inf): female rats, oral cassette; for AUC(0-t): 0 to 8 h; for Cmax: blood; for AUC(0-inf): calculated to infinity; for half-life: female, po
Description: The pharmacokinetics of compounds of the present invention was evaluated in 3 female Sprague Dawley rats (8 week old) after oral cassette dosing (vehicle: 5% solutol/95% NaCl solution (at 0.9% saline concentration; application volume: 5 mL/kg) to asses the exposure of the test items. At each designated time point (0.25, 0.5, 1, 2, 4 and 8 h after dosing), 20 μL blood were collected from the tail vein into Li-heparin tubes, cooled on ice and stored at −20° C. until processed for LC-MS analysis. The obtained data is as follows: […]

[10] = human DHODH assay, read-out: IC50 range

Sequence of human URAT1 uptake transporter (Q96S37 whole entry): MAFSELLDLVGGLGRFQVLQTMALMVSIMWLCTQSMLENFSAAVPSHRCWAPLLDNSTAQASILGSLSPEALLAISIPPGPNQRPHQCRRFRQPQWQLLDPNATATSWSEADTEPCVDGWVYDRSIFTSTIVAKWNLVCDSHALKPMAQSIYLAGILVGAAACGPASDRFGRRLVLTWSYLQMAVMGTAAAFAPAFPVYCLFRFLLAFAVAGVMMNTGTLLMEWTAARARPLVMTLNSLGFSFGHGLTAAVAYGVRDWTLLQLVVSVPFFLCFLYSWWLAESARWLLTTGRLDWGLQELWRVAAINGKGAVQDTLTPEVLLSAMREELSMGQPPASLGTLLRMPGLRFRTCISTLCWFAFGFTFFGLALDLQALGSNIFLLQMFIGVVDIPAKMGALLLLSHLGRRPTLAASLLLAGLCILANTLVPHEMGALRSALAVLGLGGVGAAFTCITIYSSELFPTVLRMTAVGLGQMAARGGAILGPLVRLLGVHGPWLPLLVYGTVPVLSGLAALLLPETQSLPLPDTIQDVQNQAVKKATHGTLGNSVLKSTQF
Sequence of N-terminally truncated recombinant hDHODH enzyme (Q02127 whole entry, looked up, the tested form may be a part): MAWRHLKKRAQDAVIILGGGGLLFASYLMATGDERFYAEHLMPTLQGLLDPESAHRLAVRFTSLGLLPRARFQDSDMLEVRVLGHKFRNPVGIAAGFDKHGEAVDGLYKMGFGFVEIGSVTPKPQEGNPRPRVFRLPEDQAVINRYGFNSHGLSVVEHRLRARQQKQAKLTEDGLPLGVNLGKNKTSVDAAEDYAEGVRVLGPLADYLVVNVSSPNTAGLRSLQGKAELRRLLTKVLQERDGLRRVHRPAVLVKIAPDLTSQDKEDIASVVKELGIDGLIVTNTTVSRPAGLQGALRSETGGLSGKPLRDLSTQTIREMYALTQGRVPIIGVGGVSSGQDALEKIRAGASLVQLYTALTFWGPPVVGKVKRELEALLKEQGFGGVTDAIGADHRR

[2H]C([2H])([2H])ONC(=O)c1sccc1C(=O)Nc1c(F)c(F)c(-c2cccc(OC([2H])([2H])[2H])c2)c(F)c1F [9/6]
IC50 [1, 10]: < 0.1 µM
EC50 (SARS-CoV-2): < 1 µM
AUC(0-t) [2]: 25000 ng·h/mL
Cmax [2]: 6700 ng/mL
F [2]: 76%
half-life [2]: 2.5 h

[2H]C([2H])([2H])Oc1cccc(-c2cc(F)c(NC(=O)C3=C(C(=O)NS(C)(=O)=O)CCC3)c(F)c2)c1 [Example 1/1]
human URAT1 uptake transporter stimulation @ 10 μM [3]: <20%
logD [4]: 0.9
EC50 (SARS-CoV-2): 25 to 50 µM
solubility [5]: 227 µM (≈ 103 µg/mL)

[2H]C([2H])([2H])Oc1cccc(-c2c(F)c(F)c(NC(=O)C3=C(C(=O)NS(C)(=O)=O)CCC3)c(F)c2F)c1 [Example 1/7]
IC50 [1, 10]: < 0.1 µM
EC50 (SARS-CoV-2): < 10 µM
microsomal CLint ([6]; female): 30.5 µL/min/mg
microsomal CLint ([6]; male): 20 µL/min/mg
microsomal CLint ([7]; female): 4.01 µL/min/mg
microsomal CLint ([7]; male): 1.32 µL/min/mg

COc1cccc(-c2c(F)c(F)c(NC(=O)C3=C(C(=O)NS(C)(=O)=O)CCC3)c(F)c2F)c1 [Example 1/13]
IC50 [1, 10]: < 0.1 µM
microsomal CLint ([6]; female): 35.4 µL/min/mg
microsomal CLint ([6]; male): 25.5 µL/min/mg
microsomal CLint ([7]; female): 10.3 µL/min/mg
microsomal CLint ([7]; male): 14.4 µL/min/mg

NS(=O)(=O)NC(=O)C1=C(C(=O)Nc2c(F)c(F)c(-c3cccc(OC(F)(F)F)c3)c(F)c2F)CCC1 [Example 2, N^1-Sulfamoyl-N^2-(2,3,5,6-tetrafluoro-3′-(trifluoromethoxy)-[1,1′-biphenyl]-4-yl)cyclopent-1-ene-1,2-dicarboxamide]
IC50 [1, 10]: < 0.1 µM
human URAT1 uptake transporter stimulation @ 10 μM [3]: 72%
EC50 (SARS-CoV-2): 10 to 25 µM

[2H]C([2H])([2H])Oc1cccc(-c2cc(F)c(NC(=O)C3=C(C(=O)NS(N)(=O)=O)CCC3)c(F)c2)c1 [Example 2/1]
IC50 [1, 10]: < 0.1 µM
human URAT1 uptake transporter stimulation @ 10 μM [3]: 22%
logD [4]: 0.5
EC50 (SARS-CoV-2): > 50 µM
AUC ([8]; female mice): 8610 ng·h/mL
Cmax ([8]; female mice): 2280 ng/mL
AUC ([8]; male mice): 3070 ng·h/mL
Cmax ([8]; male mice): 1500 ng/mL
F ([8]; female mice): ♀ 144%
half-life ([8]; female): 2.4 h
F ([8]; male mice): ♂ 60%
half-life ([8]; male): 3.1 h
solubility [5]: 235 µM (≈ 107 µg/mL)

O=C(Nc1c(F)c(F)c(-c2cccc(OC(F)(F)F)c2)c(F)c1F)C1=C(c2nn[nH]n2)CCC1 [Example 3, N-(2,3,5,6-Tetrafluoro-3′-(trifluoromethoxy)-[1,1′-biphenyl]-4-yl)-2-(2H-tetrazol-5-yl)cyclopent-1-ene-1-carboxamide]
IC50 [1]: 0.1 to 1 µM
human URAT1 uptake transporter stimulation @ 10 μM [3]: <20%
EC50 (SARS-CoV-2): < 10 µM
solubility [5]: 207 µM (≈ 101 µg/mL)

[2H]C([2H])([2H])Oc1cccc(-c2c(F)c(F)c(NC(=O)C3=C(C(=O)NOC)COC3)c(F)c2F)c1 [Example 5/4]
IC50 [1, 10]: < 0.1 µM
EC50 (SARS-CoV-2): < 1 µM
AUC(0-t) [2]: 106000 ng·h/mL
Cmax [2]: 18000 ng/mL
F [2]: 39%
half-life [2]: > 8 h
AUC(0-t) [9]: 125 µM·h
Cmax [9]: 21 µM
AUC(0-inf) [9]: 271 µM·h
half-life [9]: 7.9 h

[2H]C([2H])([2H])ONC(=O)C1=C(C(=O)Nc2c(F)c(F)c(-c3cccc(OC([2H])([2H])[2H])c3)c(F)c2F)COC1 [Example 5/5]
IC50 [1, 10]: < 0.1 µM
EC50 (SARS-CoV-2): < 1 µM
AUC(0-t) [2]: 165000 ng·h/mL
Cmax [2]: 70000 ng/mL
F [2]: 56%
half-life [2]: > 8 h
AUC(0-t) [9]: 113 µM·h
Cmax [9]: 19 µM
AUC(0-inf) [9]: 252 µM·h
half-life [9]: 8.4 h

CONC(=O)C1=C(C(=O)Nc2c(F)c(F)c(-c3cccc(OC)c3)c(F)c2F)COC1 [Example 5/9]
IC50 [1, 10]: < 0.1 µM
AUC(0-t) [9]: 91 µM·h
Cmax [9]: 17 µM
AUC(0-inf) [9]: 185 µM·h
half-life [9]: 6.6 h

[2H]C([2H])([2H])Oc1cccc(-c2ccc(NC(=O)C3=C(C(=O)NOC)CCC3)c3c2CCC3)c1 [Example 8/1]
IC50 [1, 10]: > 10 µM
EC50 (SARS-CoV-2): < 10 µM

[2H]C([2H])([2H])Oc1cccc(-c2cc(F)c(NC(=O)c3ccsc3C(=O)NOCCO)c(F)c2)c1 [Example 9/1]
IC50 [1, 10]: < 0.1 µM
EC50 (SARS-CoV-2): < 1 µM
microsomal CLint ([6]; female): 52.8 µL/min/mg
microsomal CLint ([6]; male): 162 µL/min/mg
microsomal CLint ([7]; female): 40.4 µL/min/mg
microsomal CLint ([7]; male): 67.2 µL/min/mg

CONC(=O)c1sccc1C(=O)Nc1c(F)cc(-c2cccc(OC)c2)cc1F [Example 9/9]
IC50 [1, 10]: < 0.1 µM
microsomal CLint ([6]; female): 69.3 µL/min/mg
microsomal CLint ([6]; male): 192 µL/min/mg
microsomal CLint ([7]; female): 66.1 µL/min/mg
microsomal CLint ([7]; male): 93.9 µL/min/mg

[2H]C([2H])([2H])Oc1cccc(-c2cc(F)c(NC(=O)c3sccc3C(=O)NOC)c(F)c2)c1 [Example 10, N^2-(3,5-Difluoro-3′-(methoxy-d3)-[1,1′-biphenyl]-4-yl)-N^3-methoxythiophene-2,3-dicarboxamide]
IC50 [1]: < 0.1 µM
EC50 (SARS-CoV-2): < 1 µM

[2H]C([2H])([2H])Oc1cccc(-c2c(F)c(F)c(NC(=O)c3ccoc3C(=O)NOC)c(F)c2F)c1 [Example 10/1]
IC50 [1, 10]: < 0.1 µM
EC50 (SARS-CoV-2): < 1 µM

[2H]C([2H])([2H])Oc1cccc(-c2cc(F)c(N(C)C(=O)C3=C(C(=O)NOC)CCC3)c(F)c2)c1 [Example 13, N1-(3,5-Difluoro-3′-(methoxy-d3)-[1,1′-biphenyl]-4-yl)-N2-methoxy-N1-methylcyclopent-1-ene-1,2-dicarboxamide]
IC50 [1]: > 10 µM
EC50 (SARS-CoV-2): 10 to 25 µM

[2H]C([2H])([2H])Oc1cccc(-c2c(F)c(F)c(NC(=O)c3cocc3C(=O)NOC)c(F)c2F)c1 [Example 16/1]
IC50 [1, 10]: < 0.1 µM
EC50 (SARS-CoV-2): < 1 µM

[2H]C([2H])([2H])Oc1cccc(-c2c(F)c(F)c(NC(=O)c3cc(C)sc3C(=O)NOC)c(F)c2F)c1 [Example 17-1, N2-Methoxy-5-methyl-N3-(2,3,5,6-tetrafluoro-3′-(methoxy-d3)-[1,1′-biphenyl]-4-yl)thiophene-2,3-dicarboxamide]
IC50 [1]: < 0.1 µM
EC50 (SARS-CoV-2): < 1 µM

[2H]C([2H])([2H])Oc1cccc(-c2c(F)c(F)c(NC(=O)c3sc(C)cc3C(=O)NOC)c(F)c2F)c1 [Example 17-2, N3-methoxy-5-methyl-N2-(2,3,5,6-tetrafluoro-3′-(methoxy-d3)-[1,1′-biphenyl]-4-yl)thiophene-2,3-dicarboxamide]
IC50 [1, 10]: < 0.1 µM
EC50 (SARS-CoV-2): < 1 µM
